How the values were obtained:
L02 = assay: Cytotoxicity against human L02 cells assessed as reduction in cell proliferation measured after 72 hrs by MTT assay; assay type: cell-based; conditions: L02, 72 h
[1] = Antiproliferative activity against human HCCLM3 cells assessed as reduction in cell proliferation measured after 72 hrs by MTT assay; assay type: functional, cell-based; conditions: HCCLM3, 72 h
HepG2 [2] = assay: Antiproliferative activity against human HepG2 cells assessed as reduction in cell proliferation measured after 72 hrs by MTT assay; assay type: functional, cell-based; conditions: HepG2, 72 h
HepG2 [3] = assay: Reduction in SIRT2 expression in human HepG2 cells measured after 72 hrs by Western blot analysis; assay type: functional, cell-based; conditions: dose microM 5-30, time 72.0 hrs
HepG2 [4] = assay: Reduction in SIRT2 expression in human HepG2 cells at 15 uM by Western blot analysis; assay type: functional, cell-based; conditions: time hrs 24-72, TDE = time-dependent effect
HepG2 [5] = assay: Cell cycle arrest in human HepG2 cells assessed as accumulation at subG1 phase at 5 uM measured after 72 hrs by FACS based flow cytometry analysis (reference value: 4 %); assay type: functional
HepG2 [6] = assay: Cell cycle arrest in human HepG2 cells assessed as accumulation at subG1 phase at 15 uM measured after 72 hrs by FACS based flow cytometry analysis (reference value: 4 %); assay type: functional
HepG2 [7] = assay: Cell cycle arrest in human HepG2 cells assessed as accumulation at subG1 phase at 30 uM measured after 72 hrs by FACS based flow cytometry analysis (reference value: 4 %); assay type: functional
HepG2 [8] = assay: Cell cycle arrest in human HepG2 cells assessed as accumulation at subG1 phase at 15 uM measured after 24 hrs by FACS based flow cytometry analysis (reference value: 3 %); assay type: functional
HepG2 [9] = assay: Cell cycle arrest in human HepG2 cells assessed as accumulation at subG1 phase at 15 uM measured after 48 hrs by FACS based flow cytometry analysis (reference value: 3 %); assay type: functional
HepG2 [10] = assay: Cell cycle arrest in human HepG2 cells assessed as accumulation at subG1 phase at 15 uM measured after 72 hrs by FACS based flow cytometry analysis (reference value: 3 %); assay type: functional

Row | SMILES | IC50 (HepG2 [2]) | IC50 (L02) | IC50 [1] | also measured
1 | Cn1nc(-c2nnc(-c3ccc(O)cc3)o2)c2ccccc21 | 86.4 µM | > 100 µM | > 100 µM | –
2 | Cn1nc(-c2nnc(-c3ccc(Br)cc3)o2)c2ccccc21 | 40 µM | > 100 µM | > 100 µM | –
3 | Cc1ccc(C(=O)Nc2ccc(S(=O)(=O)O)c3cc(S(=O)(=O)O)cc(S(=O)(=O)O)c23)cc1NC(=O)c1cccc(NC(=O)Nc2cccc(C(=O)Nc3cc(C(=O)Nc4ccc(S(=O)(=O)O)c5cc(S(=O)(=O)O)cc(S(=O)(=O)O)c45)ccc3C)c2)c1 [SURAMIN] | 67.4 µM | – | – | –
4 | Cc1cccc(-c2nnc(-c3nn(C)c4ccccc34)o2)c1 | 60 µM | > 100 µM | > 100 µM | –
5 | Cn1nc(-c2nnc(-c3ccc(Cl)cc3)o2)c2ccccc21 | 42 µM | > 100 µM | > 100 µM | –
6 | Cn1nc(-c2nnc(-c3ccccc3Cl)o2)c2ccccc21 | 45 µM | > 100 µM | > 100 µM | –

Stronger by IC50 (HepG2 [2]), values ahead:

Row | IC50 (HepG2 [2]) | SMILES | IC50 (L02) | IC50 [1] | also measured
7 | 38.7 µM | Cc1ccc(-c2nnc(-c3nn(C)c4ccccc34)o2)cc1 | > 100 µM | > 100 µM | –
8 | 37.5 µM | Cn1nc(-c2nnc(-c3ccccc3)o2)c2ccccc21 | 84.6 µM | 100 µM | –
9 | 24.5 µM | Cn1nc(-c2nnc(-c3cccc(Br)c3)o2)c2ccccc21 | > 100 µM | > 100 µM | –
10 | 22.3 µM | Cn1nc(-c2nnc(-c3ccccc3Br)o2)c2ccccc21 | 89 µM | > 100 µM | –
11 | 21.4 µM | Cn1nc(-c2nnc(-c3cccc(Cl)c3)o2)c2ccccc21 | > 100 µM | > 100 µM | –
12 | 19.5 µM | COc1ccc(-c2nnc(-c3nn(C)c4ccccc34)o2)cc1 | > 100 µM | > 100 µM | inhibition (HepG2 [3]): Dose-dependent effect; inhibition (HepG2 [4]): Tde; Activity (HepG2 [5]): 10%; Activity (HepG2 [6]): 41%; Activity (HepG2 [7]): 55%; Activity (HepG2 [8]): 10%; Activity (HepG2 [9]): 45%; Activity (HepG2 [10]): 55%
13 | 3.9 µM | CC(=O)O[C@H]1C(=O)[C@@]2(C)[C@H]([C@H](OC(=O)c3ccccc3)[C@]3(O)C[C@H](OC(=O)[C@H](O)[C@@H](NC(=O)c4ccccc4)c4ccccc4)C(C)=C1C3(C)C)[C@]1(OC(C)=O)CO[C@@H]1C[C@@H]2O [PACLITAXEL] | – | – | –

Source: ChEMBL document CHEMBL4725269, “Exploring the newer oxadiazoles as real inhibitors of human SIRT2 in hepatocellular cancer cells” (Bioorg Med Chem Lett, 2020)
